Experimental data published in PMC6630517 (Molecules, 2019).
Like-named read-outs stand apart in the source and are kept apart here.

What was measured:
[1] = system: Chinese Hamster Ovarian (CHO) cell-line; type: cell-based
Description: (§1) B12-JR1 was screened for in vitro cytotoxicity against the Chinese Hamster Ovarian (CHO) cell-line using the 3-(4,5-dimethylthiazol-2-yl)-2,5-diphenyltetrazolium bromide (MTT)-assay. The test sample was prepared to a 20 mg mL^−1 stock solution in 100% DMSO and tested in triplicate. Stock solutions were stored at −20 °C. Further dilutions were prepared in complete medium on the day of the experiment. Samples were tested as a suspension if not completely dissolved. Emetine was used as the reference drug in all experiments. The initial concentration of emetine was 100 µg mL^−1, which was diluted in complete medium with 10-fold dilutions to give 6 concentrations, the lowest being 0.001 µg mL^−1. The same dilution technique was applied to all test samples. The highest concentration of solvent to which the cells were exposed to have no measurable effect on the cell viability. […] Furthermore, the cytotoxicity in terms of the antiproliferative effect of B12-JR1, B12-JR2 and B12-JR3 were similarly evaluated by the MTT assay. The assay was carried out using human lung fibroblasts (MRC5) cell line after 48 h of cell incubation in the medium, containing compounds at concentrations ranging from 5 to 200 μM. […] The results were expressed as mean values ± standard deviation (SD) and analysed using Student’s t-test at a threshold level of p = 0.05. […]

[2] = system: chloroquine-sensitive (CQS) NF54 strain of Plasmodium falciparum; test: In vitro antiplasmodial assay (parasite lactate dehydrogenase), NF54 strain; type: cell-based; details: for activity in the sensitive strain (in words): NF54 strain
Description: (§2) Continuous in vitro cultures of asexual erythrocyte stages of P. falciparum were maintained using a modified method by Trager and Jensen. Quantitative assessment of the antiplasmodial activity in vitro was determined via the parasite lactate dehydrogenase assay using a modified method described by Makler. […] Samples were tested as a suspension if not completely dissolved. Stock solutions were stored at −20 °C. Further dilutions were prepared on the day of the experiment. […] The vitamin B12 complexes were tested at starting concentrations up to 50 μg/ mL, which was then serially diluted 2-fold in complete medium to give 10 concentrations. The ligands were tested at a starting concentration of 10 μg/mL, which was serially diluted 2-fold in complete medium to give 10 concentrations. […] The IC50 values were obtained using a non-linear dose-response curve fitting analysis via Graph Pad Prism v.5.0 software (GraphPad Software Inc., San Diego, CA, USA).

[3] = system: chloroquine-resistant (CQR) K1 strain of Plasmodium falciparum; test: In vitro antiplasmodial assay (parasite lactate dehydrogenase), K1 strain; type: cell-based; details: for Resistance Index (RI): RI = IC50 (CQR)/IC50 (CQS); for activity against the CQR K1 strain relative to CQS (in words): resistance indices very close to unity
Description: as §2

[4] = system: Tg(fabp10:EGFP) zebrafish embryos; test: Zebrafish bio-distribution, transgenic Tg(fabp10:EGFP) embryos; type: in vivo, Danio rerio
Description: (§3) Because liver toxicity presents one of the most common drawbacks of the drugs approved for the human use, the drugs synthesized in this study were examined for the possible hepatotoxicity in vivo. The transgenic Tg(fabp:EGFP) zebrafish embryos exposed at 72 hpf (a stage when the liver is becoming vascularized and performing metabolic transformation of the absorbed compounds) to the synthesized drugs were evaluated for the liver colour (a possible necrosis sign), size, fluorescence and the liver area index ([…]). These are all parameters commonly used for hepatotoxicity evaluation and to follow the effect of applied therapies on the liver function.
To verify a preferential accumulation of B12-JR1-CBC in the liver, the compound was applied intravenously (parenteral use) to zebrafish embryos.

[5] = system: human lung fibroblasts (MRC5) cell line; test: In vitro cytotoxicity, MTT assay, MRC5; type: cell-based; details: 48 h, 5 to 200 μM, read-out: IC50 against MRC5
Description: as §1

[6] = system: liver of Tg(fabp10:EGFP) zebrafish embryos; test: Zebrafish hepatotoxicity, transgenic Tg(fabp10:EGFP) embryos; type: in vivo, Danio rerio; details: 150 µM
Description: as §3
Dead embryos were counted and discarded every 24 h.

[7] = system: zebrafish (Danio rerio) embryos; test: Zebrafish embryo toxicity (lethal, developmental, cardiotoxicity); details: 6 to 120 hpf; for toxicity in zebrafish embryos (survival/teratogenicity, in words): doses up to 150 µM
Description: The toxicity evaluation of B12-JR1, B12-JR1-CBC and vitamin B12 in the zebrafish model was carried out according to general rules of the OECD Guidelines for the Testing of Chemicals. […] Embryos of wild type zebrafish (Danio rerio, AB strain) were raised in a temperature- and light-controlled zebrafish facility with 28 °C and standard 14:10-h light-dark photoperiod, and regularly fed with commercially dry flake food (TetraMin™ flakes; Tetra Melle, Germany) twice a day and Artemia nauplii once daily. Zebrafish embryos were produced by the pair-wise mating, collected and distributed into 24-well plates containing 10 embryos per well and 1 mL embryos water (0.2 g L^−1 of Instant Ocean® Salt in distilled water), and raised at 28 °C. […] Experiments were performed three times using 30 embryos per concentration. Apical endpoints for the toxicity evaluation (Table S1) were recorded at 24, 48, 72, 96 and 120 hpf using an inverted microscope (CKX41; Olympus, Tokyo, Japan). […] Experiments were performed three times using 5 embryos per concentration. The hepatotoxicity was determined according to the change of liver area index compared to the control group, calculated as the ration between liver area and embryonic lateral area x 100%, as reported by Zhang et al.. In addition, the liver colour and retention of yolk were followed as the phenotypic signs of hepatotoxicity.

blood stage = details: cited from earlier work
[8] = CQS NF54 strain, asexual erythrocyte stages, triplicate, na = not active at the tested concentration, read-out: NF54 IC50 ± SD
[9] = CQR K1 strain, asexual erythrocyte stages, triplicate, read-out: K1 IC50 ± SD
[10] = Plasmodium falciparum, CQS NF54 strain, asexual erythrocyte stages, triplicate, na = not active at the tested concentration, read-out: NF54 IC50 ± SD
[11] = Plasmodium falciparum, CQR K1 strain, asexual erythrocyte stages, triplicate, read-out: K1 IC50 ± SD

cobalamin-7-chloro-N-(2-(4-(4-ethynylphenyl)-1H-1,2,3-triazol-1-yl)ethyl)quinolin-4-amine [Compound B12-JR1]
toxicity against CHO cells (in words) [1]: not to be toxic | IC50 [2, 8]: 6.27 ± 0.37 µM | IC50 ([2]; Table 2, in vitro data obtained in the cell-based assay, read-out: IC50 NF54): 6.3 µM | IC50 [3, 9]: 9.18 ± 0.85 µM | Resistance Index (RI) [3]: 1.5 | IC50 ([3]; Table 2, in vitro data obtained in the cell-based assay, read-out: IC50 K1): 9.2 µM | activity against the CQR K1 strain relative to CQS (in words) [3]: equally active | organ distribution when applied in the embryo water (in words) ([4]; 150 µM, 106–120 hpf): preferential accumulation of both compounds in the liver | effect on liver development (in words) ([4]; after the exposure period, 150 µM of B12-JR1 and 20 µM B12-JR1-CBC): did not affect the liver development | organ distribution after microinjection into the blood circulation (in words) ([4]; parenteral, microinjected at 106 hpf, analysed at 120 hpf): solely detected in the liver | IC50 [5]: 70 µM | liver area index (in words) ([6]; exposure 72–120 hpf): did not affect the liver area index | liver size and fluorescence (in words) ([6]; exposure 72–120 hpf): no changes in the liver size and fluorescence | hepatotoxicity (in words) ([6]; dose 16–24 higher than the one active against Plasmodium strains): not hepatotoxic | toxicity in zebrafish embryos (survival/teratogenicity, in words) [7]: neither toxic | LC50 ([7]; zebrafish model): > 150 µM

C#Cc1ccc(-c2cn(CCNc3ccnc4cc(Cl)ccc34)nn2)cc1 [JR1, 7-chloro-N-(2-(4-(4-ethynylphenyl)-1H-1,2,3-triazol-1-yl)ethyl)quinolin-4-amine]
activity in the sensitive strain (in words) [2]: good activity | IC50 [2, 10]: 0.14 ± 0.01 µM | IC50 [3, 11]: 0.18 ± 0.02 µM | Resistance Index (RI) [3]: 1.3

C#Cc1ccc(-c2cn(CC(=O)N3CCn4c(nc(-c5ccc(F)cc5)c4Nc4ccc(F)cc4)C3(C)C)nn2)cc1 [SN1, 2-(4-(4-ethynylphenyl)-1H-1,2,3-triazol-1-yl)-1-(2-(4-fluorophenyl)-3-((4-fluorophenyl)amino)-8,8-dimethyl-5,6-dihydroimidazo[1,2-a]pyrazin-7(8H)-yl)ethan-1-one]
activity in the sensitive strain (in words) [2]: inactive

cobalamin-7-chloro-N-(2-(4-(4-ethynyl-2-fluorophenyl)-1H-1,2,3-triazol-1-yl)ethyl)quinolin-4-amine [Compound B12-JR3]
IC50 [2, 8]: 9.68 ± 0.73 µM | IC50 [3, 9]: > 15 µM | Resistance Index (RI) [3]: >1.6

C/C1=C2/[N-][C@H]([C@H](CC(N)=O)[C@@]2(C)CCC(=O)NC[C@@H](C)OP(=O)([O-])O[C@H]2[C@@H](O)[C@@H](n3cnc4cc(C)c(C)cc43)O[C@@H]2CO)[C@]2(C)N=C(/C(C)=C3N=C(/C=C4N=C1[C@@H](CCC(N)=O)C\4(C)C)[C@@H](CCC(N)=O)[C@]\3(C)CC(N)=O)[C@@H](CCC(N)=O)[C@]2(C)CC(N)=O.[CH2-][C@H]1O[C@@H](n2cnc3c(N)ncnc32)[C@H](O)[C@@H]1O.[Co] [Ado-Cbl, adenosylcobalamin]
rank of antimalarial activity among naturally occurring Cbls (in words) (blood stage): most active

cyanocobalamin [vitamin B12, reference compound]
toxicity in zebrafish embryos (survival/teratogenicity, in words) [7]: neither toxic

C#Cc1ccc(-c2cn(CCNc3ccnc4cc(Cl)ccc34)nn2)cc1F [JR2, 7-chloro-N-(2-(4-(4-ethynyl-3-fluorophenyl)-1H-1,2,3-triazol-1-yl)ethyl)quinolin-4-amine]
activity in the sensitive strain (in words) [2]: good activity | IC50 [2, 10]: 0.15 ± 0.01 µM | IC50 [3, 11]: 0.16 ± 0.01 µM | Resistance Index (RI) [3]: 1.1

cobalamin-7-chloro-N-(2-(4-(4-ethynyl-3-fluorophenyl)-1H-1,2,3-triazol-1-yl)ethyl)quinolin-4-amine [Compound B12-JR2]
IC50 [2, 8]: 4.73 ± 0.32 µM | IC50 [3, 9]: 6.02 ± 0.71 µM | Resistance Index (RI) [3]: 1.3 | activity against the CQR K1 strain relative to CQS (in words) [3]: equally active

Cobalamin-2-(4-(4-ethynylphenyl)-1H-1,2,3-triazol-1-yl)-1-(2-(4-fluorophenyl)-3-((4-fluorophenyl)amino)-8,8-dimethyl-5,6-dihydroimidazo[1,2-a]pyrazin-7(8H)-yl)ethan-1-one [Compound B12-SN1]
activity in the sensitive strain (in words) [2]: inactive

CCN(CC)CCCC(C)Nc1ccnc2cc(Cl)ccc12 (centres unmarked) [CQ, chloroquine, reference compound]
IC50 ([2]; Plasmodium falciparum, NF54, Erythrocyte, read-out: NF54 IC50 ± SD): 0.013 ± 0.001 µM | IC50 ([3]; Plasmodium falciparum, K1, Erythrocyte, read-out: K1 IC50 ± SD): 0.4 ± 0.04 µM

C#Cc1ccc(-c2cn(CCNc3ccnc4cc(Cl)ccc34)nn2)c(F)c1 [JR3, 7-chloro-N-(2-(4-(4-ethynyl-2-fluorophenyl)-1H-1,2,3-triazol-1-yl)ethyl)quinolin-4-amine]
activity in the sensitive strain (in words) [2]: good activity | IC50 [2, 10]: 0.19 ± 0.02 µM | IC50 [3, 11]: 0.21 ± 0.02 µM | Resistance Index (RI) [3]: 1.1
